# Measured values as given in patent publication US12466818B2, “Thienyl-aniline compounds for treatment of dermal disorders” (NFlection Therapeutics, Inc., priority 2018, dated 2025).
# Legend:
# [1] = Assay 6: liver microsomes half-life stability assay; format: in vitro ADME; settings: pH 7.4; human liver microsomes, 1 μM test compound, NADPH
# Protocol: Metabolic stability of testing compound can be evaluated using human liver microsomes to predict intrinsic clearance. Human liver microsomes are obtained from Corning Gentest.
# The assay was carried out in 96-well microtiter plates at 37° C. Reaction mixtures (25 μL) contain a final concentration of 1 μM test compound, 0.5 mg/mL liver microsomes protein, and 1 mM NADPH in buffer (100 mM potassium phosphate, pH 7.4 buffer with 3 mM MgCl2). At each of the time points (0, 15, 30, and 60 minutes), 150 μL of quench solution (100% acetonitrile with 0.1% formic acid) with internal standard was transferred to each well. Verapamil was included as a positive control to verify assay performance. Plates were sealed and centrifuged at 4° C. for 15 minutes at 4000 rpm. The supernatant was transferred to fresh plates for LC/MS/MS analysis.
# All samples were analyzed on LC/MS/MS using an AB Sciex API 4000 instrument, coupled to a Shimadzu LC-20AD LC Pump system. […]
# The extent of metabolism was calculated as the disappearance of the test compound, compared to the 0-min time incubation. Initial rates were calculated for the compound concentration and used to determine t1/2 values and subsequently, the intrinsic clearance, CLint=(0.693)(1/t1/2 (min))(g of liver/kg of body weight)(mL incubation/mg of microsomal protein)(45 mg of microsomal protein/g of liver weight). […]
# HCT116 cells = assay: Assay 3: HCT116 (Kras) GI50 assay (Cell Titer-Glo); format: cell-based; settings: Homo sapiens, HCT-116, 72 hours
# Protocol: (§1) Alternatively, the following procedure can be used to measure cell-based activity. Test compounds were dissolved in DMSO in 10 mM stock. Cell Titer-Glo® 2.0 Luminescent cell viability assay reagent was purchased from Promega (Madison, WI). A375 and HCT116 cell lines were purchased from American Type Culture Collection (Manassas, VA). For A375 cells, cell culture media was DMEM+10% FBS. For HCT116 cells, cell culture media was McCoy's 5A+10% FBS. All media were supplemented with 100 μg/mL of penicillin, and 100 μg/mL of streptomycin. Cultures were maintained at 37° C. in a humidified atmosphere of 5% CO2 and 95% air.
# (§2) Test compounds were diluted in DMSO solution with 10-dose and 3-fold dilutions in a source plate starting at 10 mM. 25 nL of each test compound was delivered from the source plate to each well of the 384-well cell culture plates (T=Final) by Echo 550. 25 μL of culture medium containing 2000 of A375 or HCT116 cells was added to each of the wells in duplicates of the cell culture plates (T=0 and T=Final). 25 μL of Cell Titer Glo 2.0 reagent was added to each well of cell culture plate (T=0). The contents were mixed on an orbital shaker for 2 min and incubated at room temperature for 15 min to stabilize luminescent signal. Luminescence was recorded by Envision 2104 Multilabel Reader (PerkinElmer, Santa Clara, CA). The number of viable cells in culture was determined based on quantitation of the ATP present in each culture well. The cells in cell culture plate (T=Final) were incubated with the compounds at 37° C., 5% CO2 for 72 hours. 25 μL of Cell Titer Glo 2.0 reagent was added to each well. The contents were mixed on an orbital shaker for 2 min and incubated at room temperature for 15 min to stabilize luminescent signal. Luminescence was recorded by Envision 2104 Multilabel Reader (PerkinElmer, Santa Clara, CA). The number of viable cells in culture was determined based on quantitation of the ATP present in each culture well. The GI50 curves were plotted using the GraphPad Prism 4 program based on a sigmoidal dose-response equation Y=Bottom+(Top-Bottom)/(1+10^((Log EC50−X)*HillSlope)). All parameters in the equation were calculated by GraphPad Prism 4 program. […] Accordingly, GI50 is the value of 10^X, where X was calculated by the Curve Fitting Equation when Y=50 using Excel.
# Assay 3 is the HCT116 (Kras) GI50 (nM) assay as described in Example 39. A3 indicates an IC50 of less than or equal to 5 μM, and B3 indicates an IC50 of greater than 5 μM and less than or equal to 10 μM.
# A375 cells = assay: Assay 2: A375 (BRAF) GI50 cell-based assay (Cell Titer-Glo); settings: Homo sapiens, A-375, 72 hours
# Protocol: as §1, §2
# Assay 2 is the A375 (BRAF) GI50 (nM) cell-based assay as described in Example 39. A2 indicates an IC50 of less than or equal to 1 μM, and B2 indicates an IC50 of greater than 1 μM and less than or equal to 2 μM.
smiles,measurement,setting,value
"O=C1CCCc2c1sc(Nc1ccc(I)cc1F)c2C(=O)NOCCO [Compound 1.029, 2-((2-Fluoro-4-iodophenyl)amino)-N-(2-hydroxyethoxy)-7-oxo-4,5,6,7-tetrahydrobenzo[b]thiophene-3-carboxamide]",half-life at 1 μM,[1],≤ 50 min
same,GI50,HCT116 cells,≤ 5000 nM
same,GI50,A375 cells,≤ 1000 nM
